In US6241963A, “Dopamine and serotonin transporter ligands and imaging agents” (priority 1996, dated 2001):

How the values were obtained:
[1] = type: in vivo, Male Sprague-Dawley rats; settings: iv
Summary of the method: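 Male Sprague-Dawley rats (225-300 g) under ether or halothane anesthesia given 0.2 mL saline containing 50-100 μCi Tc-99m tracer via femoral vein, sacrificed at various times. Organs weighed and gamma counted; % dose per organ versus injected aliquots, with striatum/cerebellum ratio from % dose/gram; brain uptake at 2 min.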

[2] = Partition coefficient between 1-octanol (n-octanol) and buffer; type: physicochemical
Protocol: (§1) Partition coefficients were measured by mixing each Tc-99m compound with 3 g each of 1-octanol and buffer (pH 7.0 or 7.4, 0.1 M phosphate) in a test tube. The test tube was vortexed for 3 minutes at room temperature, then centrifuged for 5 minutes. Two weighed samples (0.5 g each) from the 1-octanol and buffer layers were counted in a well counter. The partition coefficient was determined by calculating the ratio of cpm/g of octanol to that of buffer. Samples from the octanol layer were repartitioned until consistent partition coefficient values were obtained. The measurement was repeated 3 times.
as §1, with “The partition coefficient was measured” for “Partition coefficients were measured”, “mixing the” for “mixing each”, “3 min” for “3 minutes”

dopamine transporters = dopamine transporters (Rattus norvegicus, UniProt P23977); type: in vivo, Male Sprague-Dawley rats; settings: rats, iv
dopamine transporters, sequence (P23977 whole entry): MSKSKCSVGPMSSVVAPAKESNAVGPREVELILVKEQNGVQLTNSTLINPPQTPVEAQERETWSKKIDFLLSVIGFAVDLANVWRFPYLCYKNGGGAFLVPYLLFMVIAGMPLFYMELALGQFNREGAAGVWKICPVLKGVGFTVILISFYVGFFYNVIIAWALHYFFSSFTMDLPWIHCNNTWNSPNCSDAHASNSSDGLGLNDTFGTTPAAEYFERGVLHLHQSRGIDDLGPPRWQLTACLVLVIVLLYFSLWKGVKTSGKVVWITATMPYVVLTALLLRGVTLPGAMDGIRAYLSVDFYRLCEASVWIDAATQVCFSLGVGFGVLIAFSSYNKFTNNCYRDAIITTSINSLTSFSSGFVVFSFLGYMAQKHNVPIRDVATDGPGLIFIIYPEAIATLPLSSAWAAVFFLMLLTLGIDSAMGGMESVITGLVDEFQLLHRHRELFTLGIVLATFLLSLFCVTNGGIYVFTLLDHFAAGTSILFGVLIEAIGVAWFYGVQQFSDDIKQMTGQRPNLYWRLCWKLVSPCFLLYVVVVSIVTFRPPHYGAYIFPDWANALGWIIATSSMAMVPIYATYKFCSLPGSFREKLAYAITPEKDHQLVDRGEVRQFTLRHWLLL

COC(=O)C1C(c2ccc(Cl)cc2)CC2CCC1N2CC[S][99Tc-]12(=[O])[S]CC[N+]1(C)CC[S]2 [Compound 3.25, [^99m Tc] technetium, [methyl 3-(4-chlorophenyl)-8-(2-mercaptoethyl)-8-azabicyclo [3.2.1]octane-2-carboxylato-S][[2,2'-(methylimino)bis[ethanethiolato]](2-)-N,S,S']oxo]
Brain Uptake (% dose), 2 min ([1]; Table 3.1, rats, 2 min): 0.100 ± 0.068 % dose
Brain Uptake (% dose), 30 min ([1]; Table 3.1, rats, 30 min): 0.07 ± 0.003 % dose
Biodistribution and washout, in words ([1]; rats): cleared from muscle, while liver accumulation increased with time
Blood uptake, 2 min ([1]; rats, 2 min): 4.72 ± 1.37 % dose/organ
Brain uptake, 2 min ([1]; rats, 2 min): 0.10 ± 0.02 % dose/organ
Heart uptake, 2 min ([1]; rats, 2 min): 1.46 ± 0.37 % dose/organ
Kidney uptake, 2 min ([1]; rats, 2 min): 5.67 ± 0.94 % dose/organ
Liver uptake, 2 min ([1]; rats, 2 min): 13.51 ± 0.36 % dose/organ
Lung uptake, 2 min ([1]; rats, 2 min): 6.41 ± 2.04 % dose/organ
Muscle uptake, 2 min ([1]; rats, 2 min): 23.30 ± 3.82 % dose/organ
Skin uptake, 2 min ([1]; rats, 2 min): 2.94 ± 0.36 % dose/organ
Spleen uptake, 2 min ([1]; rats, 2 min): 0.36 ± 0.07 % dose/organ
Blood uptake, 30 min ([1]; rats, 30 min): 2.75 ± 0.62 % dose/organ
Brain uptake, 30 min ([1]; rats, 30 min): 0.06 ± 0.02 % dose/organ
Heart uptake, 30 min ([1]; rats, 30 min): 0.30 ± 0.04 % dose/organ
Kidney uptake, 30 min ([1]; rats, 30 min): 3.10 ± 0.68 % dose/organ
Liver uptake, 30 min ([1]; rats, 30 min): 29.61 ± 2.22 % dose/organ
Lung uptake, 30 min ([1]; rats, 30 min): 2.09 ± 0.47 % dose/organ
Muscle uptake, 30 min ([1]; rats, 30 min): 16.70 ± 3.62 % dose/organ
Skin uptake, 30 min ([1]; rats, 30 min): 4.71 ± 1.27 % dose/organ
Spleen uptake, 30 min ([1]; rats, 30 min): 0.61 ± 0.10 % dose/organ
Blood uptake, 60 min ([1]; rats, 60 min): 2.83 ± 0.42 % dose/organ
Brain uptake, 60 min ([1]; rats, 60 min): 0.046 ± 0.002 % dose/organ
Heart uptake, 60 min ([1]; rats, 60 min): 0.22 ± 0.23 % dose/organ
Kidney uptake, 60 min ([1]; rats, 60 min): 2.87 ± 0.43 % dose/organ
Liver uptake, 60 min ([1]; rats, 60 min): 32.15 ± 3.00 % dose/organ
Lung uptake, 60 min ([1]; rats, 60 min): 1.26 ± 0.06 % dose/organ
Muscle uptake, 60 min ([1]; rats, 60 min): 13.63 ± 0.99 % dose/organ
Skin uptake, 60 min ([1]; rats, 60 min): 4.57 ± 0.65 % dose/organ
Spleen uptake, 60 min ([1]; rats, 60 min): 0.50 ± 0.09 % dose/organ
Blood uptake, 120 min ([1]; rats, 120 min): 2.31 ± 0.27 % dose/organ
Brain uptake, 120 min ([1]; rats, 120 min): 0.025 ± 0.002 % dose/organ
Heart uptake, 120 min ([1]; rats, 120 min): 0.12 ± 0.013 % dose/organ
Kidney uptake, 120 min ([1]; rats, 120 min): 2.74 ± 0.096 % dose/organ
Liver uptake, 120 min ([1]; rats, 120 min): 35.37 ± 1.52 % dose/organ
Lung uptake, 120 min ([1]; rats, 120 min): 0.69 ± 0.061 % dose/organ
Muscle uptake, 120 min ([1]; rats, 120 min): 4.33 ± 1.20 % dose/organ
Skin uptake, 120 min ([1]; rats, 120 min): 2.30 ± 0.082 % dose/organ
Spleen uptake, 120 min ([1]; rats, 120 min): 0.58 ± 0.009 % dose/organ
Partition coefficient / lipophilicity, comparison in words [2]: appears to be the best among this series of three plus one Tc complexes
Partition coefficient, n-octanol/buffer ([2]; n-octanol/phosphate buffer (pH 7.0 or 7.4)): 307
Cerebellum, 2 min (dopamine transporters; 2 min): 0.066 ± 0.017 % dose/g
Cortex, 2 min (dopamine transporters; 2 min): 0.060 ± 0.009 % dose/g
Hippocampus, 2 min (dopamine transporters; 2 min): 0.046 ± 0.005 % dose/g
ST/CB ratio, 2 min (dopamine transporters; 2 min): 0.82
Striatum, 2 min (dopamine transporters; 2 min): 0.054 ± 0.010 % dose/g
Cerebellum, 30 min (dopamine transporters; 30 min): 0.027 ± 0.006 % dose/g
Cortex, 30 min (dopamine transporters; 30 min): 0.038 ± 0.007 % dose/g
Hippocampus, 30 min (dopamine transporters; 30 min): 0.028 ± 0.008 % dose/g
ST/CB ratio, 30 min (dopamine transporters; 30 min): 2.2
Striatum, 30 min (dopamine transporters; 30 min): 0.060 ± 0.011 % dose/g
Cerebellum, 60 min (dopamine transporters; 60 min): 0.018 ± 0.001 % dose/g
Cortex, 60 min (dopamine transporters; 60 min): 0.026 ± 0.002 % dose/g
Hippocampus, 60 min (dopamine transporters; 60 min): 0.025 ± 0.003 % dose/g
ST/CB ratio, 60 min (dopamine transporters; 60 min): 3.5
Striatum, 60 min (dopamine transporters; 60 min): 0.063 ± 0.001 % dose/g
Cerebellum, 120 min (dopamine transporters; 120 min): 0.011 % dose/g
Cortex, 120 min (dopamine transporters; 120 min): 0.015 % dose/g
Hippocampus, 120 min (dopamine transporters; 120 min): 0.011 % dose/g
ST/CB ratio, 120 min (dopamine transporters; 120 min): 2.8
Striatum, 120 min (dopamine transporters; 120 min): 0.031 % dose/g
